Results taken from patent US20220340566A1, “BENZYL AMINE-CONTAINING 5,6-HETEROAROMATIC COMPOUNDS USEFUL AGAINST MYCOBACTERIAL INFECTION” (priority 2019, published 2022).

Tests used:
[1] = tested on: Mycobacterium avium ATCC700898; test: Determination of IC85 against M. avium (resazurin fluorescence); type: cell-based; details: Mycobacterium avium, ATCC700898, M. avium ATCC700898, CAMHB medium, 37° C., 3 days incubation then resazurin, fluorescence one day later; read-out: IC85
[2] = Metabolic stability test in pooled human liver microsomes; type: in vitro ADME; details: human liver microsomes 0.5 mg protein/mL, 1 mmol/L NADPH, 37° C., 30 minutes
How it was run: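 Remaining-rate readout: parent compound left after 30 min versus 0 min (set as 100%), measured by LC/MS/MS or SPE/MS. Oxidative reaction ran at 37° C. with 1 mmol/L NADPH, 0.5 mg protein/mL pooled human microsomes, 50 mmol/L Tris-HCl pH 7.4 buffer.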

SMILES	IC85 [1] [nM]	MS_h_% (remaining amount of compound after reaction, 0 minute = 100%) [2] [%]
Cc1cc2nc(C)c(C(=O)NCc3ccc(N4CCN(c5ccc(OC(F)(F)F)cc5)[C@@H](C)C4)c(F)c3)n2cc1F [Compound I-1-47]	110	85
Cc1nc2ccc(Br)cn2c1C(=O)NCc1ccc(N2CCN(c3ccc(OC(F)(F)F)cc3)[C@@H](C)C2)c(F)c1 [Compound I-2-14]	4.5	67
CCc1nc2ccc(Cl)cn2c1C(=O)NCc1ccc(-c2ccc(OC(C)C)cc2)c(F)c1 [Compound I-3-3]	9.4	96.1
Cc1ccn2c(C(=O)NCc3ccc(N4CCN(c5ccc(OC(F)(F)F)cc5)[C@@H](C)C4)c(F)c3)c(C(F)(F)F)nc2c1 [Compound I-1-23]	45	85
Cc1ccn2c(C(=O)NCc3ccc(N4CCN(c5ccc(OC(F)(F)F)cc5)C(C)(C)C4)c(F)c3)c(C)nc2c1 [Compound I-1-31]	140	82
CCCCOc1ccc(N2CCN(c3ccc(CNC(=O)c4c(CC)nc5ccc(Cl)cn45)c(F)c3)C[C@@H]2C)cc1.Cl [Compound I-1-103]	19	64
Cc1ccn2c(C(=O)NCc3ccc(N4CCN(CC(F)F)CC4)c(F)c3)cnc2c1 [Compound I-3-42]	930	64.6
Cc1ccn2c(C(=O)NCc3ccc(N4CCN(c5ccc(OC(F)(F)F)cc5)[C@@H](C)C4)c(F)c3)c(C)nc2c1 [Compound I-1-2]	21	86
CCc1nc2cc(F)ccn2c1C(=O)NCc1ccc(-n2cc3c(n2)CN(c2ccc(OC(F)(F)F)cc2)C3)c(F)c1.Cl [Compound I-3-36]	200	69
CCc1nc2cc(F)ccn2c1C(=O)NCc1ccc(C2CCN(c3ccc(C)cc3)CC2)cc1F.Cl [Compound I-1-148]	5.4	73
CCc1nc2ccc(Cl)cn2c1C(=O)NCc1ccc(N2CCN(c3ccc(OC(C)C)cc3)C(C)(C)C2)c(F)c1 [Compound I-1-28]	12	94
Cc1nc2cc(Cl)ccn2c1C(=O)NCc1ccc(N2CCC(c3ccc(OC(F)(F)F)cc3)CC2)c(F)c1.Cl [Compound I-1-69]	510	89
Cc1nc2ccc(F)cn2c1C(=O)NCc1ccc(N2CCN(c3ccc(OC(F)(F)F)cc3)[C@H](C)C2)c(F)c1.Cl [Compound I-1-84]	38	86
CCc1nc2ccc(Cl)cn2c1C(=O)NCc1cc(F)c(N2CCN(c3ccc(OC(F)(F)F)cc3)[C@@H](C)C2)c(F)c1.Cl [Compound I-1-92]	5.5	66
Cc1cn2c(C(=O)NCc3ccc(N4CCC(c5ccc(OC(F)(F)F)cc5)CC4)c(Cl)c3)c(C)nc2s1.Cl [Compound I-3-13]	350	84
Cc1nc2ccc(Cl)cn2c1C(=O)NCc1ccc(N2CCN(c3ccc(OC(F)(F)F)cc3)[C@@H](C)C2)c(Cl)c1.Cl [Compound I-1-140]	5.7	89
Cc1nn2ccccc2c1C(=O)NCc1ccc(N2CCN(c3ccc(OC(F)(F)F)cc3)[C@@H](C)C2)c(F)c1.Cl [Compound I-1-104]	92	72
Cc1ccn2c(C(=O)NCc3ccc(C4CCN(c5ccc(OC(F)(F)F)cn5)CC4)c(C)c3)c(C)nc2c1 [Compound I-1-7]	170	87
CCCCOc1ccc(N2CCC(c3ccc(CNC(=O)c4c(CC)nc5ccc(Cl)cn45)cc3F)CC2)cc1.Cl [Compound I-1-78]	37	69
